In patent publication US9758492B2, “IDO inhibitors” (Bristol-Myers Squibb Company, priority 2013, dated 2017) one finds IC50 data, which are given here for 32 compounds.

Chain of IDO (P14902 whole entry): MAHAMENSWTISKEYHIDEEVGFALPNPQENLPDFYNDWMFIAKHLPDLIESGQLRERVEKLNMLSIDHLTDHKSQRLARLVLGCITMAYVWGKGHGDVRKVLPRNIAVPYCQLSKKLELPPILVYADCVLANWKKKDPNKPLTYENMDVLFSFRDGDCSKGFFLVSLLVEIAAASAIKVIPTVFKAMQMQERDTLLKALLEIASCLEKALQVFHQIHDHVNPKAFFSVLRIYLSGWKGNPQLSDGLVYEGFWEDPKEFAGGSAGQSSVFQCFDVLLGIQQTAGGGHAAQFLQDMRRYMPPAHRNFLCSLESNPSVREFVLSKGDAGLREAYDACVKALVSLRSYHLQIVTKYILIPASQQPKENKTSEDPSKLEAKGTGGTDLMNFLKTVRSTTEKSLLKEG

This assay addresses IDO (Homo sapiens, UniProt P14902). As to the kind of experiment: LLE_IDO_ABS_DR (IDO assay).
As to `Cc1ccc(NC(=O)Nc2cc(-c3ccccc3-c3nnn[nH]3)ccc2N2CCC(c3ccccc3)C2)cn1` (racemic) [Example 368, (±)-1-(6-Methylpyridin-3-yl)-3-(4-(3-phenylpyrrolidin-1-yl)-2′-(1H-tetrazol-5-yl)-[1,1′-biphenyl]-3-yl)urea], half-maximal inhibition (IC50) required 2500 nM.
To `O=C(Nc1ccc(OC(F)(F)F)cc1)Nc1cc(-c2ccccc2-c2nnn[nH]2)ccc1N1CCC(c2ccccc2)C1` (racemic) [Example 369, (±)-1-(4-(3-Phenylpyrrolidin-1-yl)-2′-(1H-tetrazol-5-yl)-[1,1′-biphenyl]-3-yl)-3-(4-(trifluoromethoxy)phenyl)urea] belongs 520 nM.
Turning to `O=C(Nc1ccc(F)nc1)Nc1cc(-c2ccccc2-c2nnn[nH]2)ccc1N1CCC(c2ccccc2)C1` (racemic) [Example 371, (±)-1-(6-Fluoropyridin-3-yl)-3-(4-(3-phenylpyrrolidin-1-yl)-2′-(1H-tetrazol-5-yl)-[1,1′-biphenyl]-3-yl)urea], 3740 nM corresponded to half-maximal inhibition (IC50).
On to `Cc1cc(NC(=O)Nc2cc(-c3ccccc3-c3nnn[nH]3)ccc2N2CCC(c3ccccc3)C2)on1` (racemic) [Example 372, (±)-1-(3-Methylisoxazol-5-yl)-3-(4-(3-phenylpyrrolidin-1-yl)-2′-(1H-tetrazol-5-yl)-[1,1′-biphenyl]-3-yl)urea], for which the IC50 – broadly, the concentration at which inhibition is half-maximal – was 1940 nM.
`Cc1ccc(NC(=O)Nc2cc(-c3ccccc3NS(=O)(=O)C(F)(F)F)ccc2N(CC(C)C)CC(C)C)cc1` [Example 4, N-(4′-(Diisobutylamino)-3′-(3-p-tolylureido)biphenyl-2-yl)-1,1,1-trifluoromethanesulfonamide] yielded an IC50 of 80 nM.
Regarding `Cc1ccc(NC(=O)Nc2cc(-c3ccccc3-c3nnn[nH]3)cc(F)c2N(CC(C)C)CC(C)C)cc1` [Example 5, 1-(4-(Diisobutylamino)-5-fluoro-2′-(1H-tetrazol-5-yl)biphenyl-3-yl)-3-p-tolylurea], it took 4.05 nM to reach half-maximal inhibition (IC50).
For the compound `Cc1ccc(NC(=O)Nc2cc(-c3ccccc3C(=O)O)cc(F)c2N(CC(C)C)CC(C)C)cc1` [Example 6, 4′-(Diisobutylamino)-3′-fluoro-5′-(3-p-tolylureido)biphenyl-2-carboxylic acid], inhibition was half-maximal at 6.47 nM (IC50).
The value for `CC(C)CN(CC(C)C)c1ccc(-c2ccccc2-c2nnn[nH]2)cc1NC(=O)Nc1nccs1` [Example 7, 1-(4-(Diisobutylamino)-2′-(1H-tetrazol-5-yl)biphenyl-3-yl)-3-(thiazol-2-yl)urea] was 20 nM.
In the case of `Cc1ccc(NC(=O)Nc2cc(-c3ccccc3C(=O)O)ccc2N(CCC(F)(F)F)Cc2ccccc2)cc1` [Example 8, 4′-(Benzyl(3,3,3-trifluoropropyl)amino)-3′-(3-(p-tolyl)ureido)-[1,1′-biphenyl]-2-carboxylic acid], the IC50 was found to be 180 nM.
The value for `Cc1ccc(NC(=O)Nc2cc(-c3cc(F)ccc3C(=O)O)ccc2N(CCC(F)(F)F)Cc2ccccc2)cc1` [Example 9, 4′-(Benzyl(3,3,3-trifluoropropyl)amino)-5-fluoro-3′-(3-(p-tolyl)ureido)-[1,1′-biphenyl]-2-carboxylic acid] was 350 nM; that for `Cc1ccc(NC(=O)Nc2cc(-c3ccccc3-c3nnn[nH]3)ccc2N(CCC(F)(F)F)Cc2ccccc2)cc1` [Example 10, 1-(4-(Benzyl(3,3,3-trifluoropropyl)amino)-2′-(1H-tetrazol-5-yl)-[1,1′-biphenyl]-3-yl)-3-(p-tolyl)urea] was 100 nM.
Compound `Cc1ccc(NC(=O)Nc2cc(-c3ccccc3C(=O)O)ccc2N(CCC(F)(F)F)Cc2cccc(Cl)c2)cc1` [Example 11, 4′-((3-Chlorobenzyl)(3,3,3-trifluoropropyl)amino)-3′-(3-(p-tolyl)ureido)-[1,1′-biphenyl]-2-carboxylic acid] yielded a half-inhibitory concentration (IC50) of 250 nM.
For `Cc1ccc(NC(=O)Nc2cc(-c3cc(F)ccc3C(=O)O)ccc2N(CCC(F)(F)F)Cc2cccc(Cl)c2)cc1` [Example 12, 4′-((3-Chlorobenzyl)(3,3,3-trifluoropropyl)amino)-5-fluoro-3′-(3-(p-tolyl)ureido)-[1,1′-biphenyl]-2-carboxylic acid], the midpoint of inhibition, the IC50, lay at 220 nM.
To `Cc1ccc(NC(=O)Nc2cc(-c3cc(F)ccc3C(=O)O)ccc2N(CCC(F)(F)F)Cc2ccc(Cl)cc2)cc1` [Example 15, 4′-((4-Chlorobenzyl)(3,3,3-trifluoropropyl)amino)-5-fluoro-3′-(3-(p-tolyl)ureido)-[1,1′-biphenyl]-2-carboxylic acid] belongs 90 nM; to `Cc1ccc(NC(=O)Nc2cc(-c3ccccc3C(=O)O)ccc2N(CCC(F)(F)F)Cc2ccccc2Cl)cc1` [Example 17, 4′-((2-Chlorobenzyl)(3,3,3-trifluoropropyl)amino)-3′-(3-(p-tolyl)ureido)-[1,1′-biphenyl]-2-carboxylic acid], 270 nM.
To `Cc1ccc(NC(=O)Nc2cc(-c3cc(F)ccc3C(=O)O)ccc2N(CCC(F)(F)F)Cc2ccccc2Cl)cc1` [Example 18, 4′-((2-Chlorobenzyl)(3,3,3-trifluoropropyl)amino)-5-fluoro-3′-(3-(p-tolyl)ureido)-[1,1′-biphenyl]-2-carboxylic acid] belongs 630 nM; to `Cc1ccc(NC(=O)Nc2cc(-c3ccccc3C(=O)O)ccc2N(Cc2ccccc2)CC(F)F)cc1` [Example 20, 4′-(Benzyl(2,2-difluoroethyl)amino)-3′-(3-(p-tolyl)ureido)-[1,1′-biphenyl]-2-carboxylic acid], 130 nM.
In turn, `Cc1ccc(NC(=O)Nc2cc(-c3cc(F)ccc3C(=O)O)ccc2N(Cc2ccccc2)CC(F)F)cc1` [Example 21, 4′-(Benzyl(2,2-difluoroethyl)amino)-5-fluoro-3′-(3-(p-tolyl)ureido)-[1,1′-biphenyl]-2-carboxylic acid] came in with a half-inhibitory concentration (IC50) of 150 nM.
The value for `Cc1ccc(NC(=O)Nc2cc(-c3ccccc3-c3nnn[nH]3)ccc2N(Cc2ccccc2)CC(F)F)cc1` [Example 22, 1-(4-(Benzyl(2,2-difluoroethyl)amino)-2′-(1H-tetrazol-5-yl)-[1,1′-biphenyl]-3-yl)-3-(p-tolyl)urea] was 30 nM; that for `C#CCN(CC(C)C)c1ccc(-c2cc(F)ccc2C(=O)O)cc1NC(=O)Nc1ccc(C)cc1` [Example 23, 5-Fluoro-4′-(isobutyl(prop-2-yn-1-yl)amino)-3′-(3-(p-tolyl)ureido)-[1,1′-biphenyl]-2-carboxylic acid] was 450 nM; that for `C#CCN(CC(C)C)c1ccc(-c2ccccc2-c2nnn[nH]2)cc1NC(=O)Nc1ccc(C)cc1` [Example 24, 1-(4-(Isobutyl(prop-2-yn-1-yl)amino)-2′-(1H-tetrazol-5-yl)-[1,1′-biphenyl]-3-yl)-3-(p-tolyl)urea] was 10 nM.
The value for `Cc1ccc(NC(=O)Nc2c(N(CC(C)C)CC(C)C)ccc(-c3ccccc3-c3nnn[nH]3)c2F)cc1` [Example 25, 1-(4-(Diisobutylamino)-2-fluoro-2′-(1H-tetrazol-5-yl)-[1,1′-biphenyl]-3-yl)-3-(p-tolyl)urea] was 30 nM.
Turning to `Cc1ccc(NC(=O)Nc2c(N(CC(C)C)CC(C)C)ccc(-c3ccccc3C(=O)O)c2F)cc1` [Example 26, 4′-(Diisobutylamino)-2′-fluoro-3′-(3-(p-tolyl)ureido)-[1,1′-biphenyl]-2-carboxylic acid], the IC50 stood at 370 nM.
Compound `Cc1ccc(NC(=O)Nc2cc(-c3ccccc3-c3nnn[nH]3)ccc2N(CC(C)C)CC(C)CC(F)(F)F)cc1` (centres unmarked) [Example 27, 1-(4-(Isobutyl(4,4,4-trifluoro-2-methylbutyl)amino)-2′-(1H-tetrazol-5-yl)-[1,1′-biphenyl]-3-yl)-3-(p-tolyl)urea] yielded an IC50 of 2.55 nM.
Compound `Cc1ccc(NC(=O)Nc2cc(-c3ccccc3C(=O)O)ccc2N(CC(C)C)CC(C)CC(F)(F)F)cc1` (centres unmarked) [Example 28, 4′-(Isobutyl(4,4,4-trifluoro-2-methylbutyl)amino)-3′-(3-(p-tolyl)ureido)-[1,1′-biphenyl]-2-carboxylic acid] showed an IC50 of 10 nM.
To `[2H]C([2H])(C(C)C)N(c1ccc(-c2ccccc2-c2nnn[nH]2)cc1NC(=O)Nc1ccc(C)cc1)C1CCCCC1` [Example 29, 1-(4-(Cyclohexyl(1,1-dideutero-2-methylpropyl)amino)-2′-(1H-tetrazol-5-yl)biphenyl-3-yl)-3-p-tolylurea] belongs 4.76 nM; to `[2H]C([2H])(C(C)C)N(c1ccc(-c2ccccc2C(=O)O)cc1NC(=O)Nc1ccc(C)cc1)C1CCCCC1` [Example 30, 4′-(Cyclohexyl(1,1-dideutero-2-methylpropyl)amino)-3′-(3-p-tolylureido)biphenyl-2-carboxylic acid], 5.19 nM.
The value for `[2H]C([2H])(C(C)C)N(c1ccc(-c2cc(F)ccc2C(=O)O)cc1NC(=O)Nc1ccc(C)cc1)C1CCCCC1` [Example 31, 4′-(Cyclohexyl(1,1-dideutero-2-methylpropyl)amino)-5-fluoro-3′-(3-p-tolylureido)biphenyl-2-carboxylic acid] was 5.18 nM; that for `[2H]C([2H])(C(C)C)N(c1ccc(-c2ccccc2-c2nnn[nH]2)cc1NC(=O)Nc1ccccc1F)C1CCCCC1` [Example 32, 1-(4-(Cyclohexyl(1,1-dideutero-2-methylpropyl)amino)-2′-(1H-tetrazol-5-yl)biphenyl-3-yl)-3-(2-fluorophenyl)urea] was 2.54 nM; that for `[2H]C([2H])(C(C)C)N(c1ccc(-c2ccccc2C(=O)O)cc1NC(=O)Nc1ccccc1F)C1CCCCC1` [Example 33, 4′-(Cyclohexyl(1,1-dideutero-2-methylpropyl)amino)-3′-(3-(2-fluorophenyl)ureido)biphenyl-2-carboxylic acid] was 4.99 nM.
On to `[2H]C([2H])(C(C)C)N(c1ccc(-c2cc(F)ccc2C(=O)O)cc1NC(=O)Nc1ccccc1F)C1CCCCC1` [Example 34, 4′-(Cyclohexyl(1,1-dideutero-2-methylpropyl)amino)-5-fluoro-3′-(3-(2-fluorophenyl)ureido)biphenyl-2-carboxylic acid], for which half-maximal inhibition (IC50) was put at 4.01 nM.
Take `Cc1ccc(NC(=O)Nc2cc(-c3cscc3C(=O)O)ccc2N(CC(C)C)CC(C)C)cc1` [Example 35, 4-(4-(Diisobutylamino)-3-(3-p-tolylureido)phenyl)thiophene-3-carboxylic acid]: half-maximal inhibition (IC50) was put at 10 nM.
